{"source": "patent US6107070A", "about": "“Human manganese superoxide dismutase proteins” (University of Florida, priority 1998, dated 2000)", "target": "T1, human manganese superoxide dismutase (hMn SOD) variant Q143N (Gln 143 replaced by Asn), SEQ ID NO:3 (Homo sapiens, UniProt P04179, Q167N)", "T1 construct": "as a mature protein tagged with an extra Met at the amino terminus; made in house; host or cells: E. coli QC774 (SodA/SodB mutant), pTrc99A", "T1 sequence (P04179 25-222 Q167N)": "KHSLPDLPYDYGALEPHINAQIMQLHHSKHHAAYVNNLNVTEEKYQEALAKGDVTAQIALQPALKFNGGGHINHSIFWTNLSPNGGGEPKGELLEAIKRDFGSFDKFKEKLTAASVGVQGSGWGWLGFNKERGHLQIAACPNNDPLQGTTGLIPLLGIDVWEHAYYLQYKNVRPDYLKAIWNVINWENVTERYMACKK", "assay": "Decay of superoxide catalyzed by Q143N hMnSOD, stopped-flow spectrophotometry at 5° C.", "format": "biochemical", "method": "Experiments were based on the stabilization of KO2 in aprotic solvent and the subsequent large dilution of this solution by an aqueous solution of enzyme in a stopped-flow apparatus, as described by McClune and Fee (1978). KO2 was dissolved in a mixture of dimethyl sulfoxide and […] (2:1 by volume; Aldrich, spectrophotometric grade) with solubility of KO2 enhanced with 18-crown-6 (Valentine and Curtis, 1975). The stopped-flow spectrophotometer (Kinetic Instruments, Ann Arbor, Mich.) was capable of efficient mixing of this solution with an acqueous solution of enzyme in buffer with a dead time between 1.5 and 2.0 ms. One drive syringe (capacity 50 μl) contained the aprotic solution of O2. This was diluted fifty-fold by the contents of a second syringe (capacity 2.5 ml) which contained enzyme, EDTA, and buffer. The decay of superoxide in initial velocity experiments and progress curves was monitored by its absorption at 250 to 300 nm. Stopped-flow experiments were carried out at […]. Four or more kinetic traces were averaged to reduce noise. Steady-state parameters were obtained by least-squares analysis of such data (Leatherbarrow (1987) \"Enzfitter: a nonlinear regression data analysis program for the IBM PC\" Elsevier BIOSOFT, Cambridge).", "key": {"[1]": {"settings": "FIG. 2, Michaelis-Menten fit, H2O, 50 mM glycine buffer, 1 mM EDTA, pH 9.4, 5° C."}, "[2]": {"settings": "Table 1, stopped-flow spectrophotometry, 5° C., pH 9.4"}, "[3]": {"settings": "Table 2, KINSIM fit of FIG. 8 scheme to stopped-flow data, 5° C., pH 9.4"}}, "note": "Several values for one entry are separate records, joined by “and”; a condition that tells them apart may be missing. Equal entries are not always repeated.", "data": [{"smiles": "[O]O", "note": "[superoxide]", "values": [{"measurement": "kcat", "setting": "[1]", "result": 160, "unit": "s⁻¹"}, {"measurement": "kcat /Km", "setting": "[1]", "result": 850000, "unit": "M⁻¹ s⁻¹"}, {"measurement": "maximal value of Kcat /Km", "setting": "FIG. 3, fit of pH profile pH 8.5 to 10.5, 5° C.", "result": "~7×10^6 M^-1 s^-1 and 7±3×10^6 M^-1 s^-1"}, {"measurement": "maximal value of Kcat", "setting": "FIG. 4, fit of pH profile, 5° C., in 1/s", "result": "310±30"}, {"measurement": "kcat", "setting": "[2]", "result": 0.3, "unit": "ms^-1"}, {"measurement": "kcat /km", "setting": "[2]", "result": 820000, "unit": "M⁻¹ s⁻¹"}, {"measurement": "k1", "setting": "[3]", "result": "2e+09", "unit": "M⁻¹ s⁻¹"}, {"measurement": "k2", "setting": "[3]", "result": 600, "unit": "s⁻¹"}, {"measurement": "k3", "setting": "[3]", "result": "2e+09", "unit": "M⁻¹ s⁻¹"}, {"measurement": "k4", "setting": "[3]", "result": 600, "unit": "s⁻¹"}, {"measurement": "k-1", "setting": "[3]", "result": "1.5e+06", "unit": "s⁻¹"}, {"measurement": "k-4", "setting": "[3]", "result": 1000, "unit": "M⁻¹ s⁻¹"}, {"measurement": "k-5", "setting": "Table 2, KINSIM fit, dead-end complex, 5° C., pH 9.4", "result": 200, "unit": "s⁻¹"}, {"measurement": "k5", "setting": "Table 2, KINSIM fit, formation of dead-end complex, 5° C., pH 9.4", "result": 20000, "unit": "s⁻¹"}, {"measurement": "kcat /Km", "setting": "observed at pH 9.4, 5° C.", "result": "7×10^5 M^1 s^1"}, {"measurement": "maximal value of Kcat", "setting": "pH dependence (FIG. 4)", "result": "~300", "unit": "s⁻¹"}]}]}
